Measured values taken from PMC3150407, “Differential Inhibitor Sensitivity between Human Kinases VRK1 and VRK2” (PLoS ONE, 2011).
“Also recorded” adds a separate entry of the source. Where a name gives a salt, the structure may show the parent alone.

What was measured:
[1] = target: T1, GST-VRK1 (Homo sapiens, UniProt Q99986); assay: In vitro kinase assay, GST-VRK1 autophosphorylation; type: biochemical; conditions: 5 µM ATP, average of three experiments, ± standard deviation, No inhibition is lack of effect at 100 µM; for IC50: read-out: IC50 (µM) GST-VRK1 Auto- phosphorylation
T1 construct: made in house
T1 sequence (Q99986 1-396): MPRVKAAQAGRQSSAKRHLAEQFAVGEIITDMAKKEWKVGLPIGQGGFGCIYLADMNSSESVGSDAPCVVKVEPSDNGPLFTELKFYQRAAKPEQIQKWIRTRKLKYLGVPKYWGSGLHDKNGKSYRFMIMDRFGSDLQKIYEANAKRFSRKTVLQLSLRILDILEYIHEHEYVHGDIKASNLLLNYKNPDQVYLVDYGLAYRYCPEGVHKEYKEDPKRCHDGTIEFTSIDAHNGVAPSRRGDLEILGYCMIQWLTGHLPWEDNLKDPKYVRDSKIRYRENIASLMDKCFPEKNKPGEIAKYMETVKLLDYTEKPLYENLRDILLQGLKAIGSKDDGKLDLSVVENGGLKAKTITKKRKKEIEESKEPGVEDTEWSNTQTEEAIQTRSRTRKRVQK

[2] = target: T1, GST-VRK1; assay: In vitro kinase assay, GST-VRK1 phosphorylation of histone H3; type: biochemical; conditions: 5 µM ATP; average of three experiments, ± standard deviation; No inhibition is lack of effect at 100 µM
[3] = target: T2, GST-VRK2A (Homo sapiens, UniProt Q86Y07); assay: In vitro kinase assay, GST-VRK2A autophosphorylation; type: biochemical; conditions: for IC50: read-out: IC50 (µM) GST-VRK2A Auto-phosphorylation
T2 construct: a full-length protein of 508 aminoacids (known as VRK2 and VRK2A); made in house; host or cells: E. coli BL21

[4] = target: T2, GST-VRK2A; assay: In vitro kinase assay, GST-VRK2A phosphorylation of histone H3; type: biochemical
[5] = target: T3, VRK2A (Homo sapiens, UniProt Q86Y07); assay: In vitro kinase assay, VRK2A kinase activity (autophosphorylation and H3 phosphorylation); type: biochemical; conditions: for IC50 / Effect on VRK2 (VRK2A) kinase activity at 100 µM inhibitor (in words): 5 µM ATP; for IC50: H3 phosphorylation or autophosphorylation, read-out: Concentration giving fifty percent inhibition of VRK2A activity; for Effect on VRK2 (VRK2A) kinase activity at 100 µM inhibitor (in words): inhibitor 100 µM, autophosphorylation and H3 phosphorylation
T3 construct: a full-length protein of 508 aminoacids (known as VRK2 and VRK2A); made in house; host or cells: E. coli BL21

[6] = tested on: CHK2; conditions: Table S1, known target value; no reference given; read-out: Kinase target (IC50) CHK2; cited from earlier work
[7] = target: vaccinia virus B1R kinase (Vaccinia virus, UniProt P16913); type: biochemical; conditions: p53 and histone H3 as substrates, ATP 5 µM
[8] = tested on: CK1; conditions: read-out: Concentration inhibiting CK1; cited from earlier work
[9] = tested on: S6K; conditions: Table S1, known target value; no reference given; read-out: Kinase target (IC50) S6K; cited from earlier work
[10] = tested on: MSK1; conditions: Table S1, known target value; no reference given; read-out: Kinase target (IC50) MSK1; cited from earlier work
[11] = target: T4, human VRK1 (Homo sapiens, UniProt Q99986); assay: In vitro kinase assay, VRK1 kinase activity (autophosphorylation and H3 phosphorylation); type: biochemical; conditions: for Effect on VRK1 kinase activity at 100 µM inhibitor (in words): inhibitor 100 µM, 5 µM ATP, autophosphorylation and H3 phosphorylation
T4 construct: made in house
T4 sequence (Q99986 1-396): T1 sequence (Q99986 1-396)

[12] = tested on: DNA-PKcs; conditions: Table S1, known target value; no reference given; read-out: Kinase target (IC50) DNA-PKcs; cited from earlier work
[13] = tested on: ATM; conditions: Table S1, known target value; no reference given; read-out: Kinase target (IC50) ATM; cited from earlier work
[14] = tested on: DNA-PK; conditions: Table S1, known target value; no reference given; read-out: Kinase target (IC50) DNA-PK; cited from earlier work
[15] = tested on: Mek1; conditions: Table S1, known target value; no reference given; read-out: Kinase target (IC50) Mek1; cited from earlier work
[16] = tested on: PKC isoforms; conditions: read-out: Reported fifty percent inhibition of PKC isoforms; cited from earlier work
[17] = tested on: GSK-3β; conditions: Table S1, known target value; no reference given; read-out: Kinase target (IC50) GSK-3β; cited from earlier work
[18] = 5 µM ATP, average of three experiments, ± standard deviation, No inhibition is lack of effect at 100 µM

## NC(=O)Nc1cc(-c2cccc(F)c2)sc1C(=O)N[C@H]1CCCNC1 [AZD7762, 5-(3-Fluorophenyl)-3-ureidothiophene-N-[(S)-piperidin-3-yl]-2-carboxamide]
[1]
  IC50 (µM) GST-VRK1 Auto- phosphorylation: No inhibition
[2]
  IC50 (µM) GST-VRK1 H3 phosphorylation: No inhibition
[3]
  IC50: 40 ± 1.07 µM
[4]
  IC50: 24.4 ± 1.07 µM
[5]
  IC50: 30 µM
[6]
  IC50: < 0.01 µM

## COc1cc(OC)c(C=C2C(=O)Nc3ccccc32)c(OC)c1 [IC261]
[1]
  IC50: 121.4 ± 1.05 µM
[2]
  IC50: 55.9 ± 1.04 µM
[3]; [18]
  IC50: 11.1 ± 1.1 µM
[4]; [18]
  IC50: 14.7 ± 1.13 µM
[5]
  IC50: 10 µM
[7]
  Sensitivity of vaccinia virus B1R kinase to inhibitor (in words): not
[8]
  IC50: 6 µM
[9]
  IC50: 6 µM
[10]
  IC50: 6 µM

## CC(=O)c1ccc(N2CCOCC2)cc1O [IC86621, 1-(2-Hydroxy-4-morpholin-4-yl-phenyl)ethanone]
[1]
  IC50 (µM) GST-VRK1 Auto- phosphorylation: No inhibition
[2]
  IC50 (µM) GST-VRK1 H3 phosphorylation: No inhibition
[3]; [18]
  IC50 (µM) GST-VRK2A Auto-phosphorylation: No inhibition
[4]; [18]
  IC50 (µM) GST-VRK2A H3 phosphorylation: No inhibition
[11]
  Effect on VRK1 kinase activity at 100 µM inhibitor (in words): no noticeable effect
[5]
  Effect on VRK2 (VRK2A) kinase activity at 100 µM inhibitor (in words): no noticeable effect
[12]
  IC50: 0.1 µM

## O=c1cc(-c2cccc3c2Sc2ccccc2S3)oc(N2CCOCC2)c1 [KU55933, 2-(4-Morpholinyl)-6-(1-thianthrenyl)-4H-pyran-4-one]
[1]
  IC50 (µM) GST-VRK1 Auto- phosphorylation: No inhibition
[2]
  IC50 (µM) GST-VRK1 H3 phosphorylation: No inhibition
[3]; [18]
  IC50 (µM) GST-VRK2A Auto-phosphorylation: No inhibition
[4]; [18]
  IC50 (µM) GST-VRK2A H3 phosphorylation: No inhibition
[11]
  Effect on VRK1 kinase activity at 100 µM inhibitor (in words): no noticeable effect
[5]
  Effect on VRK2 (VRK2A) kinase activity at 100 µM inhibitor (in words): no noticeable effect
[7]
  Sensitivity of vaccinia virus B1R kinase to inhibitor (in words): sensitive
[13]
  IC50: […]

## O=c1cc(N2CCOCC2)oc2c1ccc1ccccc12 [NU7026, 2-(Morpholin-4-yl)-benzo[h]chomen-4-one]
[1]
  IC50 (µM) GST-VRK1 Auto- phosphorylation: No inhibition
[2]
  IC50 (µM) GST-VRK1 H3 phosphorylation: No inhibition
[3]; [18]
  IC50 (µM) GST-VRK2A Auto-phosphorylation: No inhibition
[4]; [18]
  IC50 (µM) GST-VRK2A H3 phosphorylation: No inhibition
[11]
  Effect on VRK1 kinase activity at 100 µM inhibitor (in words): no noticeable effect
[5]
  Effect on VRK2 (VRK2A) kinase activity at 100 µM inhibitor (in words): no noticeable effect
[14]
  IC50: 0.23 µM

## COc1cccc(-c2cc(=O)c3ccccc3o2)c1N [PD98059, 2’-Amino-3’-methoxyflavone]
[1]
  IC50 (µM) GST-VRK1 Auto- phosphorylation: No inhibition
[2]
  IC50 (µM) GST-VRK1 H3 phosphorylation: No inhibition
[3]; [18]
  IC50 (µM) GST-VRK2A Auto-phosphorylation: No inhibition
[4]; [18]
  IC50 (µM) GST-VRK2A H3 phosphorylation: No inhibition
[11]
  Effect on VRK1 kinase activity at 100 µM inhibitor (in words): None of them was able to induce a significant inhibition
[5]
  Effect on VRK2 (VRK2A) kinase activity at 100 µM inhibitor (in words): None of them was able to induce a significant inhibition
[15]
  IC50: […]

## Cn1cc(C2=C(c3cn(CCCSC(=N)N)c4ccccc34)C(=O)NC2=O)c2ccccc21 [RO 31–8220, 2-(1-[3-(Amidinothio)propyl]-1H-indol-3-yl)-3-methanosulfonate salt]
[1]
  IC50: 11.1 ± 1.16 µM
[2]
  IC50: 34.4 ± 1.05 µM
[3]; [18]
  IC50: 31.8 ± 1.15 µM
[4]; [18]
  IC50: 33.6 ± 1.04 µM
[7]
  Sensitivity of vaccinia virus B1R kinase to inhibitor (in words): sensitive
[16]
  IC50: 0.005 to 0.027 µM

## CC[C@H](CO)Nc1nc(NCc2ccccc2)c2ncn(C(C)C)c2n1 [Roscovitine, 2-(R)-(1-Ethyl-2-hydroxyethylamino)-6-benzylamino-9-isopropylpurine]
[1]
  IC50 (µM) GST-VRK1 Auto- phosphorylation: No inhibition
[2]
  IC50 (µM) GST-VRK1 H3 phosphorylation: No inhibition
[11]; inhibitor 250 µM
  Effect on VRK1 kinase activity at 250 µM inhibitor (in words): some noticeable effect

## C[S+]([O-])c1ccc(-c2nc(-c3ccc(F)cc3)c(-c3ccncc3)[nH]2)cc1 (stereo not shown) [SB203580, 4-(4-Fluorophenyl)-2-(4-methylsulfinylphenyl)-5-(4-pyridyl)-1H-imidazole]
[1]
  IC50 (µM) GST-VRK1 Auto- phosphorylation: No inhibition
[2]
  IC50 (µM) GST-VRK1 H3 phosphorylation: No inhibition
[11]
  Effect on VRK1 kinase activity at 100 µM inhibitor (in words): None of them was able to induce a significant inhibition
[5]
  Effect on VRK2 (VRK2A) kinase activity at 100 µM inhibitor (in words): None of them was able to induce a significant inhibition

## CN[C@@H]1C[C@H]2O[C@@](C)([C@@H]1OC)n1c3ccccc3c3c4c(c5c6ccccc6n2c5c31)C(=O)NC4 [Staurosporine, (9S,10R,11R,13R)-2,3,10,11,12,13-Hexahydro-10-methoxy-9-methyl-11-(methylamino)-9,13-epoxy-1H,9H-diindolo[1,2,3-gh:3',2',1'-lm]pyrrolo[3,4-j][1,7]benzodiazonin-1-one]
[5]; Fig. 3D, concentration not given
  Inhibition of VRK2A activity, concentration series (in words): not inhibited
[7]
  Sensitivity of vaccinia virus B1R kinase to inhibitor (in words): sensitive

## Cn1sc(=O)n(Cc2ccccc2)c1=O [TDZD-8, 4-benzil-2methyl-1,2,4-thiodiazolidine-3,5-dione]
[1]
  IC50 (µM) GST-VRK1 Auto- phosphorylation: Inhibition at 7.5 µM
[2]
  IC50 (µM) GST-VRK1 H3 phosphorylation: Inhibition at 7.5 µM
[3]; [18]
  IC50 (µM) GST-VRK2A Auto-phosphorylation: No inhibition
[4]; [18]
  IC50 (µM) GST-VRK2A H3 phosphorylation: No inhibition
[11]; inhibitor 5 µM, autophosphorylation or H3 phosphorylation
  Effect on VRK1 kinase activity at 5 µM inhibitor (in words): no significant inhibition
[11]; inhibitor 7.5 µM, autophosphorylation or H3 phosphorylation
  Effect on VRK1 kinase activity at 7.5 µM inhibitor (in words): almost completely inhibited
[11]
  Effect on VRK1 kinase activity at 100 µM inhibitor (in words): more sensitive
[5]; inhibitor 500 µM (not shown)
  Effect on VRK2A kinase activity at 500 µM inhibitor (in words): insensitive
[17]
  IC50: 2 µM

## O=c1nc(NCc2ccccc2)s[nH]1 [TDZD-20, 5-Benzylamino-3-oxo-2,3-dyhidro-1,2-4-thiadiazole]
[1]
  IC50 (µM) GST-VRK1 Auto- phosphorylation: No inhibition
[2]
  IC50 (µM) GST-VRK1 H3 phosphorylation: No inhibition
[3]; [18]
  IC50 (µM) GST-VRK2A Auto-phosphorylation: No inhibition
[4]; [18]
  IC50 (µM) GST-VRK2A H3 phosphorylation: No inhibition
[11]
  Effect on VRK1 kinase activity at 100 µM inhibitor (in words): not able to inhibit
[11]; similar concentrations (5 to 7.5 µM), Fig. S2B
  Effect on VRK1 kinase activity at concentrations similar to those of TDZD-8 (in words): no effect
[5]
  Effect on VRK2 (VRK2A) kinase activity at 100 µM inhibitor (in words): insensitive; also recorded: not able to inhibit
[17]
  IC50: 6.5 µM
